Source: patent US11021628B2, “Coating composition containing methyl cellulose, method for producing the same, and solid preparation” (Shin-Etsu Chemical Co., Ltd., priority 2016, dated 2021)

Assay: Dissolution Test, Paddle method, Japanese Pharmacopoeia Sixteenth Edition
Type: physicochemical
Settings: acetaminophen, water, paddle 100 rpm
Protocol: The coated granules was subjected to the dissolution test in accordance with Dissolution Test, Paddle method in the Japanese Pharmacopoeia Sixteenth Edition at a paddle rotation rate of 100 rpm with water as the test liquid, and the drug concentration was quantitatively determined at a measurement wavelength of 244 nm by using an ultraviolet spectrophotometer (UV-1700, manufactured by Shimadzu Corporation).
As Reference Example 1, the dissolution rates of an acetaminophen powder after 1 minute and 10 minutes are also shown in Table 3.

dissolution ratio after 1 minute (1 minute): 48.0%
dissolution ratio after 10 minutes (10 minutes): 99.6%
Structure (SMILES): CC(=O)Nc1ccc(O)cc1 [Ref. Ex. 1, acetaminophen]
